US11420947B2, “(S)-n-hydroxy-2-(2-(4-methoxyphenyl)butanamido)thiazole-5-carboxamide and pharmaceutically acceptable salts thereof” (TRANSLATIONAL DRUG DEVELOPMENT, LLC, priority 2018, dated 2022)
pIC50: −log10 of the molar value.

Key:
Assay in all cases: CellTiter-Glo cell viability assay
Type in all cases: cell-based
[1] = system: NCI-H226; conditions: for pIC50: Homo sapiens, NCI-H226, LUNG, Mesothelioma, 72 hours
Description: (§1) Cell viability in the presence of varying concentrations of the above listed compounds at different time points was used to assess cytotoxicity and the effect of the compounds on cell proliferation.
(§2) Cell viability was measured by the CellTiter-Glo® cell viability assay from Promega (Madison, Wis.). The CellTiter-Glo® Luminescent Cell Viability Assay is a homogeneous method to determine the number of viable cells in culture based on quantitation of the ATP present, which signals the presence of metabolically active cells. Following treatment, CellTiter-Glo® is added to treatment wells and incubated at 37° C. luminescence values were measured at using a Molecular Devices Spectramax microplate reader
(§3) Cells were grown to 70% confluency, trypsinized, counted, and seeded in 96 well flat-bottom plates at a final concentration of 2.5×10^3-5×10^3 cells/well (Day 0). Cells were allowed to incubate in growth media for 24 hours. Treatment with the test agents or standard agents began on Day 1 and continued for 72 hours. At the 72-hour timepoint, treatment containing media was removed. Viable cell numbers are quantified by the CellTiter-Glo® cell viability assay as described above. Results from these studies were used to calculate an IC50 value (concentration of drug that inhibits cell growth by 50 percent of control) for each compound.
(§4) For single agent and combination studies, data from each experiment was collected and expressed as % Cell Growth using the following calculation: % Cell Growth=(ftest/fvehicle)×100
(§5) Where test is the fluorescence of the tested sample, and fvehicle is the fluorescence of the vehicle in which the drug is dissolved. Dose response graphs and IC50 values were generated using Prism 6 software (GraphPad) using the following equation: Y=(Top-Bottom)/(1+10^((logIC^50^-X)-HillSlope))

[2] = system: MOLM-13; conditions: for pIC50: Homo sapiens, MOLM-13, HEMATOPIETIC, AML, 72 hours
Description: as §1, §2, §3, §4, §5

[3] = system: BT-20; conditions: for pIC50: Homo sapiens, BT-20, BREAST, Carcinoma, 72 hours
Description: as §1, §2, §3, §4, §5

[4] = system: A549; conditions: for pIC50: Homo sapiens, A549, LUNG, NSCLC, 72 hours
Description: as §1, §2, §3, §4, §5

[5] = system: ASPC-1; conditions: for pIC50: Homo sapiens, ASPC1, ASPC-1, PANCREAS, Pancreatic, 72 hours
Description: as §1, §2, §3, §4, §5

[6] = system: G402; conditions: for pIC50: Homo sapiens, G-402, G402, RENAL, Renal leiomyoblastoma, 72 hours
Description: as §1, §2, §3, §4, §5

[7] = system: MDA-MB-157; conditions: for pIC50: Homo sapiens, MDA-MB-157, BREAST, Medullary Carcinoma, 72 hours
Description: as §1, §2, §3, §4, §5

[8] = system: DOHH-2; conditions: for pIC50: Homo sapiens, DOHH-2, HEMATOPIETIC, Lymphoma, 72 hours
Description: as §1, §2, §3, §4, §5

[9] = system: Panc-1; conditions: for pIC50: Homo sapiens, Panc-1, PANCREAS, Pancreatic, 72 hours
Description: as §1, §2, §3, §4, §5

[10] = system: NCI-H820; conditions: for pIC50: NCI-H820, LUNG, NSCLC, 72 hours
Description: as §1, §2, §3, §4, §5

[11] = system: K562; conditions: for pIC50: Homo sapiens, K562, HEMATOPIETIC, CML, 72 hours
Description: as §1, §2, §3, §4, §5

[12] = system: H1650; conditions: for pIC50: Homo sapiens, NCI-H1650, H1650, LUNG, NSCLC, 72 hours
Description: as §1, §2, §3, §4, §5

[13] = system: H660; conditions: for pIC50: NCI-H660, H660, PROSTATE, LN Met, 72 hours
Description: as §1, §2, §3, §4, §5

[14] = system: RXF-393; conditions: for pIC50: Homo sapiens, RXF-393, RENAL, RCC, 72 hours
Description: as §1, §2, §3, §4, §5

[15] = system: MOLP-8; conditions: for pIC50: Homo sapiens, MOLP-8, HEMATOPIETIC, MM, 72 hours
Description: as §1, §2, §3, §4, §5

[16] = system: FaDu; conditions: for pIC50: Homo sapiens, FaDu, H&N SQUAMOUS CELL, Pharynx, 72 hours
Description: as §1, §2, §3, §4, §5

[17] = system: SUM149PT; conditions: for pIC50: Homo sapiens, SUM149PT, BREAST, IBC, 72 hours
Description: as §1, §2, §3, §4, §5

[18] = system: MDA-MB-468; conditions: for pIC50: Homo sapiens, MDA-MB-468, BREAST, TNBC, 72 hours
Description: as §1, §2, §3, §4, §5

[19] = system: KMM-1; conditions: for pIC50: KMM-1, HEMATOPIETIC, MM, 72 hours
Description: as §1, §2, §3, §4, §5

[20] = system: BT474; conditions: for pIC50: Homo sapiens, BT-474, BT474, BREAST, Ductal Carcinoma, 72 hours
Description: as §1, §2, §3, §4, §5

[21] = system: KMS-34; conditions: for pIC50: KMS-34, HEMATOPIETIC, MM, 72 hours
Description: as §1, §2, §3, §4, §5

[22] = system: NCI-H1963; conditions: for pIC50: Homo sapiens, NCI-H1963, LUNG, Carcinoma, 72 hours
Description: as §1, §2, §3, §4, §5

[23] = system: N87; conditions: for pIC50: N87, GASTRIC, Carcinoma, 72 hours
Description: as §1, §2, §3, §4, §5

[24] = system: MM1.S; conditions: for pIC50: Homo sapiens, MM1.S, HEMATOPIETIC, MM, 72 hours
Description: as §1, §2, §3, §4, §5

[25] = system: Capan-2; conditions: for pIC50: Homo sapiens, Capan-2, PANCREAS, Pancreatic, 72 hours
Description: as §1, §2, §3, §4, §5

CC[C@H](C(=O)Nc1ncc(C(=O)NO)s1)c1ccc(OC)cc1 [#1a, (S)—N-hydroxy-2-(2-(4-methoxyphenyl)butanamido)thiazole-5-carboxamide]
pIC50 [1]: 6.70 | #1/#1a ([1]; ratio of IC50, NCI-H226): 2.4 | #1b/#1a ([1]; ratio of IC50, NCI-H226): 8.44 | pIC50 [2]: 7.55 | #1/#1a ([2]; ratio of IC50, MOLM-13): 2.21 | #1b/#1a ([2]; ratio of IC50, MOLM-13): 7.46 | pIC50 [3]: 7.03 | #1/#1a ([3]; ratio of IC50, BT-20): 2.54 | #1b/#1a ([3]; ratio of IC50, BT-20): 8.16 | pIC50 [4]: 7.28 | #1/#1a ([4]; ratio of IC50, A549): 1.46 | #1b/#1a ([4]; ratio of IC50, A549): 7.65 | pIC50 [5]: 6.95 | #1/#1a ([5]; ratio of IC50, ASPC-1): 1.41 | #1b/#1a ([5]; ratio of IC50, ASPC-1): 7.26 | pIC50 [6]: 7.19 | #1/#1a ([6]; ratio of IC50, G402): 1.57 | #1b/#1a ([6]; ratio of IC50, G402): 7.71 | pIC50 [7]: 7.05 | #1/#1a ([7]; ratio of IC50, MDA-MB-157): 1.9 | #1b/#1a ([7]; ratio of IC50, MDA-MB-157): 6.27 | pIC50 [8]: 7.77 | #1/#1a ([8]; ratio of IC50, DOHH-2): 0.94 | #1b/#1a ([8]; ratio of IC50, DOHH-2): 7.94 | pIC50 [9]: 6.52 | #1/#1a ([9]; ratio of IC50, Panc-1): 2.09 | #1b/#1a ([9]; ratio of IC50, Panc-1): 8.85 | pIC50 [10]: 7.27 | #1/#1a ([10]; ratio of IC50, NCI-H820): 1.57 | #1b/#1a ([10]; ratio of IC50, NCI-H820): 7.37 | pIC50 [11]: 7.11 | #1/#1a ([11]; ratio of IC50, K562): 1.86 | #1b/#1a ([11]; ratio of IC50, K562): 5.1 | pIC50 [12]: 6.76 | #1/#1a ([12]; ratio of IC50, H1650): 2.09 | #1b/#1a ([12]; ratio of IC50, H1650): 6.91 | pIC50 [13]: 7.55 | #1/#1a ([13]; ratio of IC50, H660): 5.64 | #1b/#1a ([13]; ratio of IC50, H660): 15.11 | pIC50 [14]: 6.95 | #1/#1a ([14]; ratio of IC50, RXF-393): 3.52 | #1b/#1a ([14]; ratio of IC50, RXF-393): 7.82 | pIC50 [15]: 7.89 | #1/#1a ([15]; ratio of IC50, MOLP-8): 1 | #1b/#1a ([15]; ratio of IC50, MOLP-8): 2.46 | pIC50 [16]: 7.40 | #1/#1a ([16]; ratio of IC50, FaDu): 0.25 | #1b/#1a ([16]; ratio of IC50, FaDu): 8.28 | pIC50 [17]: 7.13 | #1/#1a ([17]; ratio of IC50, SUM149PT): 2.58 | #1b/#1a ([17]; ratio of IC50, SUM149PT): 8.27 | pIC50 [18]: 7.22 | #1/#1a ([18]; ratio of IC50, MDA-MB-468): 1.13 | #1b/#1a ([18]; ratio of IC50, MDA-MB-468): 9.17 | pIC50 [19]: 7.72 | #1/#1a ([19]; ratio of IC50, KMM-1): 1.05 | #1b/#1a ([19]; ratio of IC50, KMM-1): 5.53 | pIC50 [20]: 6.84 | #1/#1a ([20]; ratio of IC50, BT474): 6.9 | #1b/#1a ([20]; ratio of IC50, BT474): 20.83 | pIC50 [21]: 7.89 | #1/#1a ([21]; ratio of IC50, KMS-34): 1.15 | #1b/#1a ([21]; ratio of IC50, KMS-34): 5.15 | pIC50 [22]: 7.59 | #1/#1a ([22]; ratio of IC50, NCI-H1963): 7.54 | #1b/#1a ([22]; ratio of IC50, NCI-H1963): 15.65 | pIC50 [23]: 7.74 | #1/#1a ([23]; ratio of IC50, N87): 6.67 | #1b/#1a ([23]; ratio of IC50, N87): 18.39 | pIC50 [24]: 7.92 | #1/#1a ([24]; ratio of IC50, MM1.S): 2.75 | #1b/#1a ([24]; ratio of IC50, MM1.S): 5.92 | pIC50 [25]: 6.87 | #1/#1a ([25]; ratio of IC50, Capan-2): 2.67 | #1b/#1a ([25]; ratio of IC50, Capan-2): 7.13

CC[C@@H](C(=O)Nc1ncc(C(=O)NO)s1)c1ccc(OC)cc1 [#1b, (R)—N-hydroxy-2-(2-(4-methoxyphenyl)butanamido)thiazole-5-carboxamide]
pIC50 [1]: 5.77 | pIC50 [2]: 6.68 | pIC50 [3]: 6.12 | pIC50 [4]: 6.40 | pIC50 [5]: 6.09 | pIC50 [6]: 6.30 | pIC50 [7]: 6.25 | pIC50 [8]: 6.87 | pIC50 [9]: 5.57 | pIC50 [10]: 6.40 | pIC50 [11]: 6.40 | pIC50 [12]: 5.92 | pIC50 [13]: 6.37 | pIC50 [14]: 6.05 | pIC50 [15]: 7.49 | pIC50 [16]: 6.48 | pIC50 [17]: 6.21 | pIC50 [18]: 6.26 | pIC50 [19]: 6.98 | pIC50 [20]: 5.52 | pIC50 [21]: 7.17 | pIC50 [22]: 6.39 | pIC50 [23]: 6.48 | pIC50 [24]: 7.15 | pIC50 [25]: 6.01
